Starred links: 1 amine or outer side, 2 acyl side, 3 side chain; linkers in the order of their positions; H or OH if unused. Positions of bridges follow the written chain, without caps; N, C: chain ends. Non-standard residues stand in square brackets, D forms with d. Residues, ends and D or L forms follow the SMILES beside them. *: point of attachment. hPhe(3-Cl-4-CF3) = N[C@@H](CCc1ccc(C(F)(F)F)c(Cl)c1)C(=O)O; X38 = CN([C@@H](Cc1cccc(OC(F)(F)F)c1)C(=O)[*:2])[*:1]; X23 = CN([C@@H](Cc1ccccc1OC(F)(F)F)C(=O)[*:2])[*:1]; NMePhe(3-Br) = CN[C@@H](Cc1cccc(Br)c1)C(=O)O; NMePhe(4-Me) = CN[C@@H](Cc1ccc(C)cc1)C(=O)O; NMePhe(2-Cl) = CN[C@@H](Cc1ccccc1Cl)C(=O)O; NMePhe(4-F) = CN[C@@H](Cc1ccc(F)cc1)C(=O)O; NMedβ3hAla = C[C@H](CC(=O)[*:2])N(C)[*:1]; NMeAla(cPent) = CN[C@@H](CC1CCCC1)C(=O)O; NMeGly(cPent) = CN[C@H](C(=O)O)C1CCCC1; NMehPhe = CN[C@@H](CCc1ccccc1)C(=O)O; NMeCha = CN[C@@H](CC1CCCCC1)C(=O)O; NMeChg = CN[C@H](C(=O)O)C1CCCCC1; NMeI = CC[C@H](C)[C@H](NC)C(=O)O; NMeD = CN[C@@H](CC(=O)O)C(=O)O; NMeL = CN[C@@H](CC(C)C)C(=O)O; NMeV = CN[C@H](C(=O)O)C(C)C; d(β3hA) = C[C@@H](N)CC(=O)O; NMeS = CN[C@@H](CO)C(=O)O; NMeA = CN[C@@H](C)C(=O)O; Piperidide = C1CCN(*)CC1; Pyrrolidide = C1CCN(*)C1; Ac5c = NC1(C(=O)O)CCCC1; Aze = O=C(O)[C@@H]1CCN1; Sar = CNCC(=O)O; Propyl = CCC*
Assays:
[1] = system: Human pancreatic cancer cell line AsPC-1; test: Measurement of AsPC-1 cell growth inhibition (AsPC-1 CGI); type: cell-based; settings: 96 h
Outline: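 AsPC-1 cells in 15% FBS RPMI-1640 were exposed to test compound for 96 hours at 37° C, with CellTiter-Glo as endpoint.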

[2] = target: T1, Kras and SOS1 (biotin-tagged human Kras loaded with GDP, His-tagged human SOS1) (Homo sapiens, UniProt P01116, G12D); test: Protein-protein interaction inhibition between Kras and SOS1 (KrasGl2D-SOS PPI) using AlphaScreen; type: binding; settings: AlphaScreen; biotin-tagged human Kras loaded with GDP, His-tagged human SOS1; read-out: KRAS G12D-SOS PPI IC50
T1 construct: made in house; host or cells: E. coli (stated for Kras only)
T1 sequence (P01116 1-188 isoform P01116-2 G12D): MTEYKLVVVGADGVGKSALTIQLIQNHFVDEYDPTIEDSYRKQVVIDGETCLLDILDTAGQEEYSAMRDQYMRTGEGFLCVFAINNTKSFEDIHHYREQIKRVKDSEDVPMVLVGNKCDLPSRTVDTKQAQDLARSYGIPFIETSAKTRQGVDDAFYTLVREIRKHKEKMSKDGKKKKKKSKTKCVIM
Outline: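 Binding between SOS1 and Kras is detected as bead-proximity luminescence: illuminate Ni-conjugated donors (680 nm), collect 520-620 nm emission from streptavidin-conjugated acceptors; Kras carries biotin and GDP loaded after purification, SOS1 carries a His tag.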

| Compound | IC50 [1] | IC50 [2] |
| --- | --- | --- |
| CC[C@H](C)[C@@H]1NC(=O)[C@H](CC(C)C)N(C)C(=O)C[C@@H](C(=O)N2CCCCC2)N(C)C(=O)[C@H](C(C)C)N(C)C(=O)C2(CCCC2)NC(=O)[C@@H]2CCCN2C(=O)[C@H](CCc2ccc(C(F)(F)F)c(Cl)c2)NC(=O)CN(C)C(=O)[C@H](Cc2ccc(F)cc2)N(C)C(=O)CN(C)C(=O)CN(C)C1=O [Compound 1631] ([NMeL]I[Sar][Sar][NMePhe(4-F)][Sar][hPhe(3-Cl-4-CF3)]P[Ac5c][NMeV][NMeD]-Piperidide; lactam N-11) | 100 to 500 nM | 5 nM |
| CC[C@H](C)[C@@H]1NC(=O)[C@H](CC(C)C)N(C)C(=O)C[C@@H](C)NC(=O)[C@H](C(C)C)N(C)C(=O)C2(CCCC2)NC(=O)[C@@H]2CCCN2C(=O)[C@H](CCc2ccc(C(F)(F)F)c(Cl)c2)NC(=O)CN(C)C(=O)[C@H](Cc2ccc(C)cc2)N(C)C(=O)CN(C)C(=O)CN(C)C1=O [Compound 1632] (cyclo([Ac5c][NMeV][d(β3hA)][NMeL]I[Sar][Sar][NMePhe(4-Me)][Sar][hPhe(3-Cl-4-CF3)]P)) | 100 to 500 nM | 2.9 nM |
| CC[C@H](C)[C@@H]1NC(=O)[C@H](CC(C)C)N(C)C(=O)C[C@@H](C)N(C)C(=O)[C@H](C(C)C)N(C)C(=O)C2(CCCC2)NC(=O)[C@@H]2CCCN2C(=O)[C@H](CCc2ccc(C(F)(F)F)c(Cl)c2)NC(=O)CN(C)C(=O)[C@H](Cc2ccccc2OC(F)(F)F)N(C)C(=O)CN(C)C(=O)CN(C)C1=O [Compound 1633] (cyclo([Ac5c][NMeV][NMedβ3hAla][NMeL]I[Sar][Sar][X23][Sar][hPhe(3-Cl-4-CF3)]P)) | 100 to 500 nM | 50 nM |
| CC[C@H](C)[C@@H]1NC(=O)[C@H](CC(C)C)N(C)C(=O)C[C@@H](C)N(C)C(=O)[C@H](C(C)C)N(C)C(=O)C2(CCCC2)NC(=O)[C@@H]2CCCN2C(=O)[C@H](CCc2ccc(C(F)(F)F)c(Cl)c2)NC(=O)CN(C)C(=O)[C@H](CCc2ccccc2)N(C)C(=O)CN(C)C(=O)CN(C)C1=O [Compound 1634] (cyclo([Ac5c][NMeV][NMedβ3hAla][NMeL]I[Sar][Sar][NMehPhe][Sar][hPhe(3-Cl-4-CF3)]P)) | 50 to 100 nM | 13 nM |
| CC[C@H](C)[C@@H]1NC(=O)[C@H](CC(C)C)N(C)C(=O)C[C@@H](C(=O)N2CCCCC2)N(C)C(=O)[C@H](C(C)C)N(C)C(=O)C2(CCCC2)NC(=O)[C@@H]2CCCN2C(=O)[C@H](CCc2ccc(C(F)(F)F)c(Cl)c2)NC(=O)CN(C)C(=O)[C@H](Cc2ccccc2Cl)N(C)C(=O)CN(C)C(=O)CN(C)C1=O [Compound 1636] ([NMeL]I[Sar][Sar][NMePhe(2-Cl)][Sar][hPhe(3-Cl-4-CF3)]P[Ac5c][NMeV][NMeD]-Piperidide; lactam N-11) | 100 to 500 nM | 11 nM |
| CC[C@H](C)[C@@H]1NC(=O)[C@H](CC(C)C)N(C)C(=O)C[C@@H](C)N(C)C(=O)[C@H](C(C)C)N(C)C(=O)C2(CCCC2)NC(=O)[C@@H]2CCCN2C(=O)[C@H](CCc2ccc(C(F)(F)F)c(Cl)c2)NC(=O)CN(C)C(=O)[C@H](Cc2cccc(OC(F)(F)F)c2)N(C)C(=O)CN(C)C(=O)CN(C)C1=O [Compound 1637] (cyclo([Ac5c][NMeV][NMedβ3hAla][NMeL]I[Sar][Sar][X38][Sar][hPhe(3-Cl-4-CF3)]P)) | 50 to 100 nM | 17 nM |
| CC[C@H](C)[C@@H]1NC(=O)[C@H](CC(C)C)N(C)C(=O)C[C@@H](C(=O)N2CCCCC2)N(C)C(=O)[C@H](C(C)C)N(C)C(=O)C2(CCCC2)NC(=O)[C@@H]2CCCN2C(=O)[C@H](CCc2ccc(C(F)(F)F)c(Cl)c2)NC(=O)CN(C)C(=O)[C@H](Cc2cccc(OC(F)(F)F)c2)N(C)C(=O)CN(C)C(=O)CN(C)C1=O [Compound 1640] ([NMeL]I[Sar][Sar][X38][Sar][hPhe(3-Cl-4-CF3)]P[Ac5c][NMeV][NMeD]-Piperidide; lactam N-11) | 100 to 500 nM | 6.6 nM |
| CC[C@H](C)[C@@H]1NC(=O)[C@H](CC(C)C)N(C)C(=O)C[C@@H](C(=O)N2CCCCC2)N(C)C(=O)[C@H](C(C)C)N(C)C(=O)C2(CCCC2)NC(=O)[C@@H]2CCCN2C(=O)[C@H](CCc2ccc(C(F)(F)F)c(Cl)c2)NC(=O)CN(C)C(=O)[C@H](Cc2ccccc2OC(F)(F)F)N(C)C(=O)CN(C)C(=O)CN(C)C1=O [Compound 1641] ([NMeL]I[Sar][Sar][X23][Sar][hPhe(3-Cl-4-CF3)]P[Ac5c][NMeV][NMeD]-Piperidide; lactam N-11) | 100 to 500 nM | 8.3 nM |
| CC[C@H](C)[C@@H]1NC(=O)[C@H](CC(C)C)N(C)C(=O)C[C@@H](C(=O)N2CCCCC2)N(C)C(=O)[C@H](C(C)C)N(C)C(=O)C2(CCCC2)NC(=O)[C@@H]2CCCN2C(=O)[C@H](CCc2ccc(C(F)(F)F)c(Cl)c2)NC(=O)CN(C)C(=O)[C@H](Cc2cccc(Br)c2)N(C)C(=O)CN(C)C(=O)CN(C)C1=O [Compound 1643] ([NMeL]I[Sar][Sar][NMePhe(3-Br)][Sar][hPhe(3-Cl-4-CF3)]P[Ac5c][NMeV][NMeD]-Piperidide; lactam N-11) | 100 to 500 nM | 7.2 nM |
| CC(C)C[C@@H]1NC(=O)[C@H](CC(C)C)N(C)C(=O)C[C@@H](C(=O)N2CCCCC2)N(C)C(=O)[C@H](C2CCCCC2)N(C)C(=O)C2(CCCC2)NC(=O)[C@@H]2CCCN2C(=O)[C@H](CCc2ccc(C(F)(F)F)c(Cl)c2)NC(=O)CN(C)C(=O)[C@H](CC2CCCCC2)N(C)C(=O)CN(C)C(=O)CN(C)C1=O [Compound 1650] ([NMeL]L[Sar][Sar][NMeCha][Sar][hPhe(3-Cl-4-CF3)]P[Ac5c][NMeChg][NMeD]-Piperidide; lactam N-11) | 100 to 500 nM | 2.6 nM |
| CC[C@H](C)[C@@H]1NC(=O)[C@H](CC(C)C)N(C)C(=O)C[C@@H](C(=O)N2CCCCC2)N(C)C(=O)[C@H](C2CCCCC2)N(C)C(=O)C2(CCCC2)NC(=O)[C@@H]2CCCN2C(=O)[C@H](CCc2ccc(C(F)(F)F)c(Cl)c2)NC(=O)CN(C)C(=O)[C@H](CC(C)C)N(C)C(=O)CN(C)C(=O)CN(C)C1=O [Compound 1652] ([NMeL]I[Sar][Sar][NMeL][Sar][hPhe(3-Cl-4-CF3)]P[Ac5c][NMeChg][NMeD]-Piperidide; lactam N-11) | 100 to 500 nM | 3.1 nM |
| CC[C@H](C)[C@@H]1NC(=O)[C@H](CC(C)C)N(C)C(=O)C[C@@H](C(=O)N2CCCC2)N(C)C(=O)[C@H](C(C)C)N(C)C(=O)C2(CCCC2)NC(=O)[C@@H]2CCCN2C(=O)[C@H](CCc2ccc(C(F)(F)F)c(Cl)c2)NC(=O)CN(C)C(=O)[C@H](CC2CCCCC2)N(C)C(=O)[C@@H]2CCN2C(=O)[C@H](C)N(C)C1=O [Compound 1656] ([NMeL]I[NMeA][Aze][NMeCha][Sar][hPhe(3-Cl-4-CF3)]P[Ac5c][NMeV][NMeD]-Pyrrolidide; lactam N-11) | 100 to 500 nM | 1.4 nM |
| CC[C@H](C)[C@@H]1NC(=O)[C@H](CC(C)C)N(C)C(=O)C[C@@H](C(=O)N2CCCC2)N(C)C(=O)[C@H](C2CCCCC2)N(C)C(=O)C2(CCCC2)NC(=O)[C@@H]2CCCN2C(=O)[C@H](CCc2ccc(C(F)(F)F)c(Cl)c2)NC(=O)CN(C)C(=O)[C@H](Cc2ccc(C)cc2)N(C)C(=O)CN(C)C(=O)CN(C)C1=O [Compound 1658] ([NMeL]I[Sar][Sar][NMePhe(4-Me)][Sar][hPhe(3-Cl-4-CF3)]P[Ac5c][NMeChg][NMeD]-Pyrrolidide; lactam N-11) | 20 to 50 nM | 0.55 nM |
| CC[C@H](C)[C@@H]1NC(=O)[C@H](CC2CCCC2)N(C)C(=O)C[C@@H](C(=O)N2CCCCC2)N(C)C(=O)[C@H](C2CCCCC2)N(C)C(=O)C2(CCCC2)NC(=O)[C@@H]2CCCN2C(=O)[C@H](CCc2ccc(C(F)(F)F)c(Cl)c2)NC(=O)CN(C)C(=O)[C@H](CC2CCCCC2)N(C)C(=O)CN(C)C(=O)CN(C)C1=O [Compound 1663] ([NMeAla(cPent)]I[Sar][Sar][NMeCha][Sar][hPhe(3-Cl-4-CF3)]P[Ac5c][NMeChg][NMeD]-Piperidide; lactam N-11) | 100 to 500 nM | 1.6 nM |
| CCCOC[C@H]1C(=O)N[C@@H]([C@@H](C)CC)C(=O)N(C)CC(=O)N(C)CC(=O)N(C)[C@@H](CC2CCCCC2)C(=O)N(C)CC(=O)N[C@@H](CCc2ccc(C(F)(F)F)c(Cl)c2)C(=O)N2CCC[C@H]2C(=O)NC2(CCCC2)C(=O)N(C)[C@@H](C2CCCCC2)C(=O)N(C)[C@H](C(=O)N2CCCCC2)CC(=O)N1C [Compound 1668] ([NMeS](Propyl)I[Sar][Sar][NMeCha][Sar][hPhe(3-Cl-4-CF3)]P[Ac5c][NMeChg][NMeD]-Piperidide; lactam N-11) | 50 to 100 nM | 0.85 nM |
| CC[C@H](C)[C@@H]1NC(=O)[C@H](CC(C)C)N(C)C(=O)C[C@@H](C(=O)N2CCCCC2)N(C)C(=O)[C@H](C2CCCCC2)N(C)C(=O)C2(CCCC2)NC(=O)[C@@H]2CCCN2C(=O)[C@H](CCc2ccc(C(F)(F)F)c(Cl)c2)NC(=O)CN(C)C(=O)[C@H](C2CCCC2)N(C)C(=O)CN(C)C(=O)CN(C)C1=O [Compound 1669] ([NMeL]I[Sar][Sar][NMeGly(cPent)][Sar][hPhe(3-Cl-4-CF3)]P[Ac5c][NMeChg][NMeD]-Piperidide; lactam N-11) | 100 to 500 nM | 1.8 nM |
| CC[C@H](C)[C@@H]1NC(=O)[C@H]([C@@H](C)CC)N(C)C(=O)C[C@@H](C(=O)N2CCCCC2)N(C)C(=O)[C@H](C2CCCCC2)N(C)C(=O)C2(CCCC2)NC(=O)[C@@H]2CCCN2C(=O)[C@H](CCc2ccc(C(F)(F)F)c(Cl)c2)NC(=O)CN(C)C(=O)[C@H](CC2CCCCC2)N(C)C(=O)CN(C)C(=O)CN(C)C1=O [Compound 1671] ([NMeI]I[Sar][Sar][NMeCha][Sar][hPhe(3-Cl-4-CF3)]P[Ac5c][NMeChg][NMeD]-Piperidide; lactam N-11) | 50 to 100 nM | 1.1 nM |

From US12371454B2, “Cyclic peptide compound having Kras inhibitory action” (priority 2019, dated 2025)
